Results as given in ChEMBL document CHEMBL2321873, “1-(4-Phenylpiperazin-1-yl)-2-(1H-pyrazol-1-yl)ethanones as novel CCR1 antagonists” (Bioorg Med Chem Lett, 2013).
Calls of active or inactive are those of the source. No cut-off for these calls is given here.

Tests used:
[1] = molecular target: T1, CX3C chemokine receptor 1 (Homo sapiens) (UniProt P49238); assay: Antagonist activity at CX3CR1 (unknown origin) assessed as inhibition of calcium flux at 10 uM; format: functional
T1 sequence (whole entry): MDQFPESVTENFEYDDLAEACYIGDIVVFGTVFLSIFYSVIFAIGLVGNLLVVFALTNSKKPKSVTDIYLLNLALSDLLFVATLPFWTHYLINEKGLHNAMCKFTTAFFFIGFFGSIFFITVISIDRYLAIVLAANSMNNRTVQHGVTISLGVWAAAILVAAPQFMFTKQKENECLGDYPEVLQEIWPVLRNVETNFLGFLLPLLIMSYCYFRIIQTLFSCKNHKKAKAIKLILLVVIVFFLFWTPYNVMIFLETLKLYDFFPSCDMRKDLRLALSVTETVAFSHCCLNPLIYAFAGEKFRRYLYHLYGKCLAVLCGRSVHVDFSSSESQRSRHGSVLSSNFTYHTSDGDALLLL

Rattus norvegicus = assay: Toxicity in Sprague-Dawley rat assessed as effect on body weight at 70 to 360 mg/kg, po after 7 days; format: organism-based; parameters: dose 70-360 mg/kg, route oral; conditions: in vivo, 168 h
[2] = molecular target: T2, C-X-C chemokine receptor type 5 (Homo sapiens) (UniProt P32302); assay: Antagonist activity at CXCR5 (unknown origin) assessed as inhibition of chemotaxis at 10 uM
T2 sequence (whole entry): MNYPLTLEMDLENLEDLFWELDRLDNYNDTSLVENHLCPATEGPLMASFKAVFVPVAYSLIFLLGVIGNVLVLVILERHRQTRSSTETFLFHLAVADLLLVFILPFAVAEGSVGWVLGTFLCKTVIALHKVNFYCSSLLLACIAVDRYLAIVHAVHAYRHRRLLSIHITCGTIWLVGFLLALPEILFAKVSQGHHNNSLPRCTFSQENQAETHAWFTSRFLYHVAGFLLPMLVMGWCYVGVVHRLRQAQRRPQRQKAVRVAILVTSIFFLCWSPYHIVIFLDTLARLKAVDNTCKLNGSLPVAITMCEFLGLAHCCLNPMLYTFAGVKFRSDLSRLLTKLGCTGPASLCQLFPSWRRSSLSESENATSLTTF

Cytochrome P450 3A4 = Cytochrome P450 3A4 (Homo sapiens, UniProt P08684); assay: Competitive inhibition of CYP3A4 (unknown origin); format: ADME
Chain of Cytochrome P450 3A4 (P08684 whole entry): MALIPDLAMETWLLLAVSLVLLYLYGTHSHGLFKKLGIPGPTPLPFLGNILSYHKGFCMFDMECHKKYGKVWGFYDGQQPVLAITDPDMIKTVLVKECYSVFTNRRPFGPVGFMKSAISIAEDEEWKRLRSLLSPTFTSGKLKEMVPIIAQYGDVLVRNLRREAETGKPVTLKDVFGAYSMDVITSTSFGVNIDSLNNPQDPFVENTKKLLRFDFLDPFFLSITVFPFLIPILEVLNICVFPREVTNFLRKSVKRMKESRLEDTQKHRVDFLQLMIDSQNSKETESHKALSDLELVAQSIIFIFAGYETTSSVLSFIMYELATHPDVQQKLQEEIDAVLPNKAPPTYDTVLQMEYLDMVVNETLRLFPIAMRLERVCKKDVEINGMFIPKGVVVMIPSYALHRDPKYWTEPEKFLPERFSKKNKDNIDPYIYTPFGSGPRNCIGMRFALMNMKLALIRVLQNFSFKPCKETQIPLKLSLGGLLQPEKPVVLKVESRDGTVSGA

[3] = molecular target: C-C chemokine receptor type 8 (Homo sapiens) (UniProt P51685); assay: Antagonist activity at CCR8 (unknown origin) assessed as inhibition of calcium flux at 10 uM; format: functional
Chain of C-C chemokine receptor type 8 (Homo sapiens) (P51685 whole entry): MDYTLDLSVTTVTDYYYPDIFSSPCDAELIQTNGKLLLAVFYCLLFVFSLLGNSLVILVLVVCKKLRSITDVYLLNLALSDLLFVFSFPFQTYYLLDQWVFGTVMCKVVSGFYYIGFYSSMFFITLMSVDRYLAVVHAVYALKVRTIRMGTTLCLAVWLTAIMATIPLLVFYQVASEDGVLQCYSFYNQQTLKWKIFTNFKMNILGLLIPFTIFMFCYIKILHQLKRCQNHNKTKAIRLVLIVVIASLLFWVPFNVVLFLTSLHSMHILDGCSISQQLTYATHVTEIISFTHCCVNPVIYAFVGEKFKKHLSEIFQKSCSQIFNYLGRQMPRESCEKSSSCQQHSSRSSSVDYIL

[4] = molecular target: T3, C-C chemokine receptor type 7 (Homo sapiens) (UniProt P32248); assay: Binding affinity to CCR7 (unknown origin) at 10 uM by radioligand displacement assay
T3 sequence (whole entry): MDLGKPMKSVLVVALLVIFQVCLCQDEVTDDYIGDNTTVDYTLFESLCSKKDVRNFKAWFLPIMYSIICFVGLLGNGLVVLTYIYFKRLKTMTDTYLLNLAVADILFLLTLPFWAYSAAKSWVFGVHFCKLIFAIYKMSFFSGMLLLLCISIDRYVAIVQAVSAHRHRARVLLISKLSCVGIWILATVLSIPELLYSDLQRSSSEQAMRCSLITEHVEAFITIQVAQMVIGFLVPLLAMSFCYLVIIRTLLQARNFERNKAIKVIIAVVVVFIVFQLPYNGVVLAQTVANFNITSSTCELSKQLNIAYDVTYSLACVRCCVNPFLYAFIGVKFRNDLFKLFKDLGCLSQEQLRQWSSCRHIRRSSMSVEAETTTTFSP

[5] = molecular target: T4, C-X-C chemokine receptor type 2 (Homo sapiens) (UniProt P25025); assay: Binding affinity to CXCR2 (unknown origin) at 10 uM by radioligand displacement assay
T4 sequence (whole entry): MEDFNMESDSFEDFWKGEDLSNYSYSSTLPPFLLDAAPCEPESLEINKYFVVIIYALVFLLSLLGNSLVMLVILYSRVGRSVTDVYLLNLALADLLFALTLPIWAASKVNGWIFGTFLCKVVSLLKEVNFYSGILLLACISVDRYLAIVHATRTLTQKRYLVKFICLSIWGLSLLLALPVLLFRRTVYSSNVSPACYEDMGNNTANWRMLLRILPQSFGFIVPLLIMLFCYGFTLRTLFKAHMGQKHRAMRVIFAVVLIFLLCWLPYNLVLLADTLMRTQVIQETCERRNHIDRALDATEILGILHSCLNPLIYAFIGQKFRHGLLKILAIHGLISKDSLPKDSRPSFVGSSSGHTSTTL

[6] = molecular target: T5, C-C chemokine receptor type 6 (Homo sapiens) (UniProt P51684); assay: Antagonist activity at CCR6 (unknown origin) assessed as inhibition of chemotaxis at 10 uM
T5 sequence (whole entry): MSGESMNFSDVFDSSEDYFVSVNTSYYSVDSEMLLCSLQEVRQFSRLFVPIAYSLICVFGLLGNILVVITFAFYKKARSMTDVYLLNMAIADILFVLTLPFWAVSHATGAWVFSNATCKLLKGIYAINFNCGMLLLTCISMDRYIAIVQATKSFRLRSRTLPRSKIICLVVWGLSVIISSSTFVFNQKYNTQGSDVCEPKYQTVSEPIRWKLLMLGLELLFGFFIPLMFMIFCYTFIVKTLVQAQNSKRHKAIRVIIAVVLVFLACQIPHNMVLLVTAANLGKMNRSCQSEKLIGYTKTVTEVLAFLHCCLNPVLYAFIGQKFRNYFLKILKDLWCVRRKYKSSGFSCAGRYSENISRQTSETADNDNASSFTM

[7] = molecular target: T6, C-X-C chemokine receptor type 1 (Homo sapiens) (UniProt P25024); assay: Binding affinity to CXCR1 (unknown origin) at 10 uM by radioligand displacement assay
T6 sequence (whole entry): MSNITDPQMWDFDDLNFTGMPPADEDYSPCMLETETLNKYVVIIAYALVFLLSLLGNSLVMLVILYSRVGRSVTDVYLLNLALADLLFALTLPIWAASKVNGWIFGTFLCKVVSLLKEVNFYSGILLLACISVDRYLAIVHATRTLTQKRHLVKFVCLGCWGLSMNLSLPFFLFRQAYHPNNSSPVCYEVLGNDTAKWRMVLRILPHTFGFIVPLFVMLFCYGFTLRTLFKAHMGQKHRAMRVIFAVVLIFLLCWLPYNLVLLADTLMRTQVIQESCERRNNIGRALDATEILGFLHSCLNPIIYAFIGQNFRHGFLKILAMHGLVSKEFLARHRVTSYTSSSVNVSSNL

For `COc1cc(N2CCN(C(=O)Cn3nc(C(F)(F)F)c(Cl)c3C)CC2)ccc1Cl`, the inhibition [1] was “inactive”, the Activity (Rattus norvegicus) was “Non-toxic” and the inhibition [2] was “inactive”. For the same molecule, the IC50 (Cytochrome P450 3A4) was over 10 µM, the inhibition [3] was “inactive” and the Activity [4] was “inactive”. The Activity [5] was “inactive”, the inhibition [6] was “inactive” and the Activity [7] was “inactive”.
